Measurements: US20130310256A1, “HERBICIDAL COMPOSITIONS COMPRISING 4-AMINO-3-CHLORO-5-FLUORO-6-(4-CHLORO-2-FLUORO-3-METHOXYPHENYL) PYRIDINE-2-CARBOXYLIC ACID OR A DERIVATIVE THEREOF AND VLCFA AND LIPID SYNTHESIS INHIBITING HERBICIDES” (DOW AGROSCIENCES LLC, priority 2008, published 2013)

Tests used:
[1] = tested on: ECHOR; assay: Example II: in-water applied weed control, transplanted paddy rice, greenhouse; type: in vivo, Echinochloa oryzoides (Ard.) Fritsch (early watergrass); details: Echinochloa oryzoides, read-out: Visual Weed Control ECHOR Obs
Experimental: (§1) Weed seeds or nutlets of the desired test plant species were planted in puddled soil (mud) prepared by mixing a shredded, non-sterilized mineral soil (50.5 percent silt, 25.5 percent clay, and 24 percent sand, with a pH of about 7.6 and an organic matter content of about 2.9 percent) and water at a 1:1 volumetric ratio. The prepared mud was dispensed in 365 mL aliquots into 16-ounce (oz.) non-perforated plastic pots with a surface area of 86.59 square centimeters (cm^2) leaving a headspace of 3 centimeters (cm) in each pot. Mud was allowed to dry overnight prior to planting or transplanting. Rice seeds were planted in Sun Gro MetroMix® 306 planting mixture, which typically has a pH of 6.0 to 6.8 and an organic matter content of about 30 percent, in plastic plug trays. Seedlings at the second or third leaf stage of growth were transplanted into 840 mL of mud contained in 32-oz. non-perforated plastic pots with a surface area of 86.59 cm^2 4 days prior to herbicide application. The paddy was created by filling the headspace of the pots with 2.5 to 3 cm of water. When required to ensure good germination and healthy plants, a fungicide treatment and/or other chemical or physical treatment was applied. The plants were grown for 4-22 days in a greenhouse with an approximate 14 hr photoperiod which was maintained at about 29′C during the day and 26° C. during the night. Nutrients were added as Osmocote® (19:6:12, N:P:K+ minor nutrients) at 2 g per 16-oz. pot and 4 g per 32-oz. pot. Water was added on a regular basis to maintain the paddy flood, and supplemental lighting was provided with overhead metal halide 1000-Watt lamps as necessary. The plants were employed for testing when they reached the first through fourth true leaf stage.
(§2) Treatments consisted of the acid or esters of 4-amino-3-chloro-5-fluoro-6-(4-chloro-2-fluoro-3-methoxy-phenyl)pyridine-2-carboxylic acid (compound A) each formulated as an SC (suspension concentrate) and various herbicidal components alone and in combination. Forms of compound A were applied on an acid equivalent basis.
(§3) The herbicidal components were applied on an active ingredient basis and included very long chain fatty acid (VLCFA) synthesis-inhibiting and fatty acid/lipid synthesis-inhibiting herbicides acetochlor (technical grade material), acetochlor+dichlormid formulateded as Topnotch®, pretilachlor (technical grade material), butachlor formulated as Butachlor EC, fentrazamide formulated as Fentrazamide EC, thiobencarb formulated as Bolero® 8EC, cafenstrole formulated as Himeadow® WP or Lapost® Flowable, benfuresate formulated as Full Shot®, anilofos (technical grade material), mefenacet (technical grade material), molinate (technical grade material), and thenylchlor (technical grade material).
(§4) Treatment requirements for each compound or herbicidal component were calculated based upon the rates being tested, the concentration of active ingredient or acid equivalent in the formulation, an application volume of 2 mL per component per pot, and an application area of 86.59 cm^2 per pot.
(§5) For formulated compounds, a measured amount was placed in an individual 100 or 200 mL glass vial and was dissolved in a volume of 1.25% (v/v) Agri-Dex® crop oil concentrate to obtain application solutions.
(§6) For technical grade compounds, a weighed amount was placed in an individual 100 to 200 mL glass vial and was dissolved in a volume of acetone to obtain concentrated stock solutions. […] The concentrated stock solutions obtained were diluted with an equivalent volume of an aqueous mixture containing 2.5% (v/v) crop oil concentrate so that the final application solutions contained 1.25% (v/v) crop oil concentrate.
(§7) Applications were made by injecting with a pipetter appropriate amounts of the application solutions, individually and sequentially, into the aqueous layer of the paddy. Control plants were treated in the same manner with the solvent blank. […]

[2] = tested on: ECHCG; assay: Example I: postemergence foliar-applied weed control, greenhouse; type: in vivo, Echinochloa crus-galli (L.) Beauv. (barnyardgrass); details: 59 gai/ha; foliar
Text: (§8) Seeds or nutlets of the desired test plant species were planted in a soil matrix prepared by mixing a loam or sandy loam soil (e.g., 28.6 percent silt, 18.8 percent clay, and 52.6 percent sand, with a pH of about 5.8 and an organic matter content of about 1.8 percent) and calcareous grit in an 80 to 20 ratio. The soil matrix was contained in plastic pots with a volume of 1 quart and a surface area of 83.6 square centimeters (cm^2). When required to ensure good germination and healthy plants, a fungicide treatment and/or other chemical or physical treatment was applied. The plants were grown for 8-22 days in a greenhouse with an approximate 14 hr photoperiod which was maintained at about 29° C. during the day and 26° C. during the night. Nutrients (Peters Excel® 15-5-15 5-Ca 2-Mg and iron chelate) were applied in the irrigation solution as needed and water was added on a regular basis. Supplemental lighting was provided with overhead metal halide 1000-Watt lamps as necessary. The plants were employed for testing when they reached the first through fourth true leaf stage.
as §2, with “(Compound A),” for “(compound A)”, “concentrate),” for “concentrate)”
(§9) Other herbicidal components were applied on an active ingredient basis and included very long chain fatty acid (VLCFA) synthesis-inhibiting and fatty acid/lipid synthesis-inhibiting herbicides acetochlor (technical grade material), acetochlor+dichlormid formulated as Topnotch®, pretilachlor (technical grade material), butachlor formulated as Butachlor EC, fentrazamide formulated as Fentrazamide EC, thiobencarb formulated as Bolero® 8EC, cafenstrole formulated as Himeadow® WP or Lapost® Flowable, benfuresate formulated as Full Shot®, dimethenamid-P formulated as Outlook®, indanofan (technical grade material), flufenacet formulated as Define® DF, mefenacet (technical grade material), S-metolachlor formulated as Dual® II Magnum, pethoxamid formulated as Successor® 600, and pyroxasulfone (technical grade material).
(§10) Treatment requirements were calculated based upon the rates being tested, the concentration of active ingredient or acid equivalent in the formulation, and a 12 mL application volume at a rate of 187 L/ha.
(§11) For treatments comprised of formulated compounds, measured amounts of compounds were placed individually in 25 mL glass vials and diluted in a volume of 1.25% (v/v) Agri-Dex® crop oil concentrated to obtain 12× stock solutions. […] Application solutions were prepared by adding an appropriate amount of each stock solution (e.g., 1 mL) and diluted to the appropriate final concentrations with the addition of 10 mL of an aqueous mixture of 1.25% (v/v) crop oil concentrate so that the final spray solutions contained 1.25+/−0.05% (v/v) crop oil concentrate.
(§12) For treatments comprised of technical compounds, weighed amounts can be placed individually in 25 mL glass vials and dissolved in a volume of 97:3 v/v acetone/DMSO to obtain 12× stock solutions. […] Application solutions can be prepared by adding an appropriate amount of each stock solution (e.g., 1 mL) and diluted to the appropriate final concentrations with the addition of 10 mL of an aqueous mixture of 1.5% (v/v) crop oil concentrate so that the final spray solutions contain 1.25% (v/v) crop oil concentrate. When technical materials are used, the concentrated stock solutions can be added to the spray solutions so that the final acetone and DMSO concentrations of the application solutions are […], respectively. […]

[3] = tested on: BRAPP; assay: Example I: postemergence foliar-applied weed control, direct seeded rice weeds, greenhouse; type: in vivo; details: foliar
Text: as §8
as §2, with “(Compound A),” for “(compound A)”, “concentrate),” for “concentrate)”
as §9, §10, §11, §12

[4] = tested on: LEFCH; assay: Example II: in-water applied weed control, transplanted paddy rice, greenhouse; type: in vivo, Leptochloa chinensis (L.) Nees (Chinese sprangletop); details: 19 DAA
Experimental: as §1, §2, §3, §4, §5, §6, §7

## CCSC(=O)N1CCCCCC1 [Molinate, S-ethyl hexahydro-1H-azepine-1-carbothioate]
[1]; 504 h, 1400 gai/ha, 21 DAA
  pest or weed control at 1400 g/ha: 55%
[1]; 504 h, 2800 gai/ha, 21 DAA
  pest or weed control at 2800 g/ha: 85%

## Cn1nc(C(F)(F)F)c(CS(=O)(=O)C2=NOC(C)(C)C2)c1OC(F)F [Pyroxasulfone, 3-[[[5-(difluoromethoxy)-1-methyl-3-(trifluoromethyl)-1H-pyrazol-4-yl]methyl]sulfonyl]-4,5-dihydro-5,5-dimethylisoxazole]
[2]
  Visual Weed Control (%) - 22 DAA ECHCG Obs: 70%
[3]; 29.5 gai/ha
  Visual Weed Control (%) - 22 DAA BRAPP Obs: 0%
[3]; 59 gai/ha
  Visual Weed Control (%) - 22 DAA BRAPP Obs: 0%
[3]; 118 gai/ha
  Visual Weed Control (%) - 22 DAA BRAPP Obs: 20%

## COc1ccsc1CN(C(=O)CCl)c1c(C)cccc1C [Thenylchlor, 2-chloro-N-(2,6-dimethylphenyl)-N-[(3-methoxy-2-thienyl)methyl]acetamide]
[1]; 456 h, 135 gai/ha, 19 DAA
  pest or weed control at 135 g/ha: 35%
[1]; 456 h, 270 gai/ha, 19 DAA
  pest or weed control at 270 g/ha: 90%
[4]; 135 gai/ha
  Visual Weed Control LEFCH Obs: 15%
[4]; 270 gai/ha
  Visual Weed Control LEFCH Obs: 25%
